Measurements reported in PMC9506485, “Synthesis and Structure–Activity Relationships for the Anti-Mycobacterial Activity of 3-Phenyl-N-(Pyridin-2-ylmethyl)Pyrazolo[1,5-a]Pyrimidin-7-Amines” (Pharmaceuticals, 2022).
Values after ≈ are worked out from the molar mass of the structure shown.

Assays:
[1] = Microsomal stability, human liver microsomes; format: in vitro ADME; details: pH 7.4
Experimental: (§1) Assays were performed by WuXi AppTec (Shanghai) Co., Ltd. The test compounds (Table 4) (at 1 μM) were incubated at 37 °C with liver microsomes from human or CD-1 mice in the presence of a NADPH regenerating system and phosphate buffer (100 mM, pH 7.4) at 0.5 mg/mL microsomal protein (the positive controls were testosterone, propafenone, and diclofenac). Samples were removed at time intervals of 0, 5, 10, 20, 30, and 60 min and immediately mixed with cold CH3CN (containing 0.1 μg/mL of tolbutamide as an internal standard) and then centrifuged prior to analysis by LCMS/MS.

[2] = test system: Mycobacterium tuberculosis (strain H37Rv); experiment: MABA minimum inhibitory concentration assay (aerobic/replicating); format: cell-based; details: M.tb H37Rv; for MIC90: Mycobacterium tuberculosis, aerobic/replicating, 90% inhibition of growth; for anti-mycobacterial activity in words: MABA/LORA
[3] = test system: Mycobacterium tuberculosis (strain H37Rv); experiment: LORA minimum inhibitory concentration assay (low-oxygen/non-replicating); details: M.tb H37Rv, 90% inhibition of growth
[4] = test system: VERO green monkey kidney cells; experiment: VERO mammalian cell toxicity assay; format: cell-based; details: Chlorocebus sabaeus; inhibition of growth of VERO green monkey kidney epithelial cells
[5] = Microsomal stability, mouse liver microsomes; format: in vitro ADME
Experimental: as §1

[6] = CD-1, mouse, microsomes, pH 7.4

SMILES	CLint scaled at 1 μM ([1]; human, microsomes) [mL/min/kg]	half-life at 1 μM ([1]; human, microsomes) [h]	microsomal CLint at 1 μM ([1]; human liver microsomes, read-out: HLM Clint(mic)) [µL/min/mg]	MIC90 [2] [µg/mL]	melting point [°C]	MIC90 LORA [3] [µg/mL]	IC50 [4] [µg/mL]	CLint scaled at 1 μM [5, 6] [mL/min/kg]	half-life at 1 μM [5, 6] [h]	microsomal CLint at 1 μM ([5]; CD-1, pH 7.4, mouse liver microsomes, read-out: MLM Clint(mic)) [µL/min/mg]	anti-mycobacterial activity in words [2]
Cc1ccnc(CNc2cc(-c3ccccc3)nc3c(-c4ccc(F)cc4)cnn23)c1 [Compound 62, 3-(4-Fluorophenyl)-N-((4-methylpyridin-2-yl)methyl)-5-phenylpyrazolo[1,5-a]pyrimidin-7-amine]	< 8.6	> 2.42	< 9.6	1.8 (≈ 4.4 µM)	157 to 159	0.5 (≈ 1.22 µM)	> 32	< 38	> 2.42	< 9.6	–
Cc1ccc(-c2cnn3c(NCc4ccccn4)cc(-c4ccccc4)nc23)cc1 [Compound 19, 5-Phenyl-N-(pyridin-2-ylmethyl)-3-(p-tolyl)pyrazolo[1,5-a]pyrimidin-7-amine]	–	–	–	> 32	172 to 174	>32	> 32	–	–	–	inactive
Cc1cccc(CNc2cc(-c3ccccc3)nc3c(-c4ccc(F)cc4)cnn23)n1 [Compound 47, 3-(4-Fluorophenyl)-N-((6-methylpyridin-2-yl)methyl)-5-phenylpyrazolo[1,5-a]pyrimidin-7-amine]	–	–	–	> 32	177 to 180	>32	> 32	–	–	–	–
N#Cc1cccnc1CNc1cc(-c2ccccc2)nc2c(-c3ccc(F)cc3)cnn12 [Compound 72, 2-(((3-(4-Fluorophenyl)-5-phenylpyrazolo[1,5-a]pyrimidin-7-yl)amino)methyl)nicotinonitrile]	–	–	–	> 32	241 to 244	>32	> 32	–	–	–	–
N#Cc1ccnc(CNc2cc(-c3ccccc3)nc3c(-c4ccc(F)cc4)cnn23)c1 [Compound 61, 2-(((3-(4-Fluorophenyl)-5-phenylpyrazolo[1,5-a]pyrimidin-7-yl)amino)methyl)isonicotinonitrile]	–	–	–	> 32	233 to 236	>32	> 32	–	–	–	inactive
Fc1ccc(-c2cnn3c(NCc4ncccc4F)cc(-c4ccccc4)nc23)cc1 [Compound 70, 3-(4-Fluorophenyl)-N-((3-fluoropyridin-2-yl)methyl)-5-phenylpyrazolo[1,5-a]pyrimidin-7-amine]	–	–	–	> 32	165 to 168	>32	> 32	–	–	–	–
CN(C)c1cccnc1CNc1cc(-c2ccccc2)nc2c(-c3ccc(F)cc3)cnn12 [Compound 69, N-((3-(Dimethylamino)pyridin-2-yl)methyl)-3-(4-fluorophenyl)-5-phenylpyrazolo[1,5-a]pyrimidin-7-amine]	–	–	–	1.5 (≈ 3.42 µM)	167 to 170	0.49 (≈ 1.12 µM)	> 32	–	–	–	–
Fc1ccc(-c2cnn3c(NCc4cccc(N5CCCCC5)n4)cc(-c4ccccc4)nc23)cc1 [Compound 50, 3-(4-Fluorophenyl)-5-phenyl-N-((6-(piperidin-1-yl)pyridin-2-yl)methyl)pyrazolo[1,5-a]pyrimidin-7-amine]	–	–	–	0.25 (≈ 0.522 µM)	185 to 187	1.75 (≈ 3.66 µM)	> 32	–	–	–	–
COc1cccc(CNc2cc(-c3ccccc3)nc3c(-c4ccc(F)cc4)cnn23)n1 [Compound 48, 3-(4-Fluorophenyl)-N-((6-methoxypyridin-2-yl)methyl)-5-phenylpyrazolo[1,5-a]pyrimidin-7-amine]	–	–	–	> 32	163 to 165	>32	> 32	–	–	–	–
Fc1cccc(-c2cnn3c(NCc4ccccn4)cc(-c4ccccc4)nc23)c1 [Compound 14, 3-(3-Fluorophenyl)-5-phenyl-N-(pyridin-2-ylmethyl)pyrazolo[1,5-a]pyrimidin-7-amine]	–	–	–	> 32	170 to 172	>32	> 32	–	–	–	–
CCc1cc(NCc2ccccn2)n2ncc(-c3ccc(F)cc3)c2n1 [Compound 23, 5-Ethyl-3-(4-fluorophenyl)-N-(pyridin-2-ylmethyl)pyrazolo[1,5-a]pyrimidin-7-amine]	–	–	–	1.4 (≈ 4.03 µM)	137 to 138	0.45 (≈ 1.3 µM)	14.1 (≈ 40.6 µM)	–	–	–	–
CN1CCN(c2ccnc(CNc3cc(-c4ccccc4)nc4c(-c5ccc(F)cc5)cnn34)c2)CC1 [Compound 65, 3-(4-Fluorophenyl)-N-((4-(4-methylpiperazin-1-yl)pyridin-2-yl)methyl)-5-phenylpyrazolo[1,5-a]pyrimidin-7-amine]	–	–	–	0.09 (≈ 0.182 µM)	203 to 205	0.73 (≈ 1.48 µM)	10.7 (≈ 21.7 µM)	–	–	–	–
Fc1ccc(-c2cnn3c(NCc4cc(Cl)ccn4)cc(-c4ccccc4)nc23)cc1 [Compound 60, N-((4-Chloropyridin-2-yl)methyl)-3-(4-fluorophenyl)-5-phenylpyrazolo[1,5-a]pyrimidin-7-amine]	–	–	–	> 32	220 to 222	>32	> 32	–	–	–	inactive
Fc1ccc(-c2cnn3c(NCc4cc(N5CCCC5)ccn4)cc(-c4ccccc4)nc23)cc1 [Compound 64, 3-(4-Fluorophenyl)-5-phenyl-N-((4-(pyrrolidin-1-yl)pyridin-2-yl)methyl)pyrazolo[1,5-a]pyrimidin-7-amine]	–	–	–	0.47 (≈ 1.01 µM)	221 to 223	0.94 (≈ 2.02 µM)	16 (≈ 34.4 µM)	–	–	–	–
FC(F)(F)c1ccccc1-c1cnn2c(NCc3ccccn3)cc(-c3ccccc3)nc12 [Compound 13, 5-Phenyl-N-(pyridin-2-ylmethyl)-3-(2-(trifluoromethyl)phenyl)pyrazolo[1,5-a]pyrimidin-7-amine]	–	–	–	> 32	166 to 168	>32	> 32	–	–	–	–
Fc1ccc(-c2cnn3c(NCc4cc(N5CCOCC5)ccn4)cc(-c4ccccc4)nc23)cc1 [Compound 66, 3-(4-Fluorophenyl)-N-((4-morpholinopyridin-2-yl)methyl)-5-phenylpyrazolo[1,5-a]pyrimidin-7-amine]	–	–	–	0.06 (≈ 0.125 µM)	208	0.98 (≈ 2.04 µM)	> 32	–	–	–	–
Fc1ccc(-c2cnn3c(NCc4cccc(F)n4)cc(-c4ccccc4)nc23)cc1 [Compound 45, 3-(4-Fluorophenyl)-N-((6-fluoropyridin-2-yl)methyl)-5-phenylpyrazolo[1,5-a]pyrimidin-7-amine]	–	–	–	> 32	196 to 198	>32	> 32	–	–	–	–
FC(F)(F)c1cccc(-c2cnn3c(NCc4ccccn4)cc(-c4ccccc4)nc23)c1 [Compound 17, 5-Phenyl-N-(pyridin-2-ylmethyl)-3-(3-(trifluoromethyl)phenyl)pyrazolo[1,5-a]pyrimidin-7-amine]	–	–	–	> 32	156 to 158	>32	> 32	–	–	–	–
COc1cccc(-c2cnn3c(NCc4ccccn4)cc(-c4ccccc4)nc23)c1 [Compound 16, 3-(3-Methoxyphenyl)-5-phenyl-N-(pyridin-2-ylmethyl)pyrazolo[1,5-a]pyrimidin-7-amine]	–	–	–	7.6 (≈ 18.7 µM)	122 to 124	10 (≈ 24.5 µM)	> 32	–	–	–	–
Fc1ccccc1-c1cnn2c(NCc3ccccn3)cc(-c3ccccc3)nc12 [Compound 11, 3-(2-Fluorophenyl)-5-phenyl-N-(pyridin-2-ylmethyl)pyrazolo[1,5-a]pyrimidin-7-amine]	–	–	–	> 32	176 to 178	>32	> 32	–	–	–	–
COc1ccccc1-c1cnn2c(NCc3ccccn3)cc(-c3ccccc3)nc12 [Compound 12, 3-(2-Methoxyphenyl)-5-phenyl-N-(pyridin-2-ylmethyl)pyrazolo[1,5-a]pyrimidin-7-amine]	–	–	–	> 32	169 to 171	>32	> 32	–	–	–	–
Fc1ccc(-c2cnn3c(NCc4cccc(Br)n4)cc(-c4ccccc4)nc23)cc1 [Compound 46, N-((6-Bromopyridin-2-yl)methyl)-3-(4-fluorophenyl)-5-phenylpyrazolo[1,5-a]pyrimidin-7-amine]	–	–	–	> 32	160 to 161	>32	> 32	–	–	–	–
Fc1ccc(-c2cnn3c(NCc4ncccc4Br)cc(-c4ccccc4)nc23)cc1 [Compound 71, N-((3-Bromopyridin-2-yl)methyl)-3-(4-fluorophenyl)-5-phenylpyrazolo[1,5-a]pyrimidin-7-amine]	–	–	–	> 32	189 to 191	>32	> 32	–	–	–	–
Cc1cccc(-c2cnn3c(NCc4ccccn4)cc(-c4ccccc4)nc23)c1 [Compound 15, 5-Phenyl-N-(pyridin-2-ylmethyl)-3-(m-tolyl)pyrazolo[1,5-a]pyrimidin-7-amine]	–	–	–	> 32	172 to 174	30 (≈ 76.6 µM)	> 32	–	–	–	–
